Counter-ions that a name gives are not always drawn. Like-named read-outs stand apart in the source and are kept apart here.
Columns and labels:
D2-Dopaminergic receptor = target: T1, D2-Dopaminergic receptor (Canis lupus familiaris, UniProt Q9GJU1); assay: D2-Dopaminergic receptor binding (Nisnik et al.)
T1 construct: from tissue
Description: (§1) The IC50 values of the various products which form part of this invention for the other receptors were measured according to the techniques described in the following references:
Nisnik H. B., Grigoriadis D. E., Pri-Bar I., Buckman O. and Seeman P. Dopamine D2 receptors selectively labeled by a benzamide neuroleptic: ^3 H-YM-09159-2 Naunyn-Schmiedeberg's Arch. Pharmacol. 329, 333-343, 1985.

5-HT2 = target: T2, 5-HT2 (Rattus norvegicus, UniProt P14842); assay: 5-HT2 receptor binding (Leysen et al.); conditions: 3H-ketanserine (title of cited method)
T2 construct: from tissue
T2 sequence (P14842 whole entry): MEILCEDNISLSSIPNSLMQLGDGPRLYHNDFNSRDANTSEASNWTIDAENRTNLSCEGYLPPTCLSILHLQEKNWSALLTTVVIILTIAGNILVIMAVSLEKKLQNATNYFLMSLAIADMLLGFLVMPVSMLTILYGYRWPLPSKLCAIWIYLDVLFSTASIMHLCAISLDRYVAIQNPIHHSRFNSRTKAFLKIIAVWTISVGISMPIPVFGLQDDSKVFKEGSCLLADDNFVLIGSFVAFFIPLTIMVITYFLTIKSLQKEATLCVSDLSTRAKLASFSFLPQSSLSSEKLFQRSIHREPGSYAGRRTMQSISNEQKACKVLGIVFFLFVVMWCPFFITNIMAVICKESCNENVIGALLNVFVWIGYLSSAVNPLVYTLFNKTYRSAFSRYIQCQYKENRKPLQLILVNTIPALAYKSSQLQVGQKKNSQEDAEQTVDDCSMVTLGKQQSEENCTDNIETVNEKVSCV
Description: as §1
Leysen J. E., Niemegeers C. J. E., Van Nueten J. M. and Laduron P.M. ^3 H-ketanserine (R 41468), a selective ^3 H ligand for serotonin2 receptor binding sites. Mol. Pharmacol., 21, 301-330, 1982.

5-HT1C = target: T3, 5-HT1C (Sus scrofa, UniProt K7GSR7); assay: 5-HT1C receptor binding (Pazos et al.); parameters: species or system porcine
T3 construct: serotonergic ligands to the porcine choroid plexus; from tissue; host or cells: porcine choroid plexus
T3 sequence (K7GSR7 1-457): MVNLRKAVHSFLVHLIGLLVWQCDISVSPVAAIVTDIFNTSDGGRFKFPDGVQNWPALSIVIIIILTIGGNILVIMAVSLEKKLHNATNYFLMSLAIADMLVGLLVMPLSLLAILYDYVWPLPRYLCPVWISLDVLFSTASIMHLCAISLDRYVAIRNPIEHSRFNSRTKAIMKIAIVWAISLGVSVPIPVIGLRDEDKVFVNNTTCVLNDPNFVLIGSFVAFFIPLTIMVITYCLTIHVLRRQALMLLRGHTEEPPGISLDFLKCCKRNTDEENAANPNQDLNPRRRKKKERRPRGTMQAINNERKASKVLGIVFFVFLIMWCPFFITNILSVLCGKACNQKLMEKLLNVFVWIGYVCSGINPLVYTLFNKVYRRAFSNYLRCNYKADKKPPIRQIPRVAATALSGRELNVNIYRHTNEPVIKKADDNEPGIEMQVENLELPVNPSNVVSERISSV
Description: as §1
Pazos A., Hoyer D. and Palacios J. M. The binding sites of serotonergic ligands to the porcine choroid plexus: characterization of a new type of serotonin recognition site. Eur. J. Pharmacol., 106, 539-546, 1985.

5-HT1A = target: T4, 5-HT1A (Rattus norvegicus, UniProt P19327); assay: 5-HT1A receptor binding (Peroutka)
T4 construct: from tissue; host or cells: rat frontal cortex
T4 sequence (P19327 1-422): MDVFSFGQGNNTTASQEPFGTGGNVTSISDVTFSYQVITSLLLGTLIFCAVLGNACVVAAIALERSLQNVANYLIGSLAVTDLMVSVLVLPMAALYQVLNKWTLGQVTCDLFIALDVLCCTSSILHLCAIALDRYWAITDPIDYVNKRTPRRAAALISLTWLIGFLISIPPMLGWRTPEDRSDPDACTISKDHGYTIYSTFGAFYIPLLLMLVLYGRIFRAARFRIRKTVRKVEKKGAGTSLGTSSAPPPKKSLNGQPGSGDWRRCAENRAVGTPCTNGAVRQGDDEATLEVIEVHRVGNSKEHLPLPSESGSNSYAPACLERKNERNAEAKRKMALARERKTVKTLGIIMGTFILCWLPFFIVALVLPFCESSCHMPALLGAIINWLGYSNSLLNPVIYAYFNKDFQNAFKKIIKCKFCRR
Description: as §1
(§2) Peroutka S. J. Pharmacological differentiation and characterization of 5-HT1A, 5-HT1B and 5-HT1C binding sites in rat frontal cortex. J. Neurochem., 45, 529-540, 1986.

5-HT1D = assay: Affinity for 5-HT1D receptors (3H-5-HT binding, sheep caudate nuclei membranes); conditions: Ratio of the IC50 values for the 5HT1A and 5HT1D receptors
Description: This study is carried out according to the technique described by Herrick-Davis and Titeler (J. Neurochem. 50, 1624-1631, 1988).
Preparation of the membranes:
Sheep brains are removed at the local abattoir and transported in ice. The caudate nuclei are removed, weighed and homogenized with a Polytron for 20 sec. (speed 6-7) in 20 volumes of Tris-HCl 50 mM, pH 7.7. The homogenate is centrifuged for 10 min at 48,000 g with an L5 50E centrifuge (Beckman).
The pellet, taken up in 20 volumes of Tris-HCl 50 mM, pH 7.7, is placed in a water bath at 37° C. for 10 min and then recentrifuged for 10 min at 48,000 g. The pellet then obtained is immediately frozen in fractions containing 0.5 g of tissue.
The pellet is defrosted and homogenized with a Dounce in 80 volumes of Tris-HCl, 50 mM pH 7.7 containing 4 mM CaCl2, 10μM of pargyline and 0.1% of ascorbic acid.
Binding is carried out at 25° C. by incubating for 30 min:
0.1 ml of buffer or 10 μM, as final concentration, of sumatriptan, in order to obtain the non-specific binding, or the product which forms part of this invention at various concentrations (between 10^-10 and 10^-6 M).
0.8 ml of membrane suspension
0.1 ml of ^3 H-5-HT (15 to 30 Ci/mM, New England Nuclear France)
The incubation is brought to an end by rapid filtration through GF/B filters and rinsing with 3 times 3 ml of ice-cold buffer, using a harvester manufactured by Brandel which makes it possible to filter 48 samples. The filters are introduced into vials containing 4 ml of emulsifier-safe liquid scintillant (Packard) and the radioactivity measured with a Tri-carb 4640 counter (Packard).
The IC50 (concentration which inhibits the specific affinity by 50%) is determined graphically.

α1-Adrenergic receptor = α1-Adrenergic receptor binding (Leslie Morrow and Creese); conditions: rat brain (title of cited method)
Description: as §1
Leslie Morrow A. and Creese I. Characterization of α1-adrenergic receptor subtypes in rat brain: a reevaluation of ^3 H-WB4101 and ^3 H prazosin binding. Mol. Pharmacol. 29, 321-330, 1986.

α2-Adrenergic receptor = target: T5, α2-Adrenergic receptor (Rattus norvegicus, UniProt P22909); assay: α2-Adrenergic receptor binding (Mallard et al.)
T5 construct: in the rat brain; from tissue; host or cells: rat brain
T5 sequence (P22909 1-465): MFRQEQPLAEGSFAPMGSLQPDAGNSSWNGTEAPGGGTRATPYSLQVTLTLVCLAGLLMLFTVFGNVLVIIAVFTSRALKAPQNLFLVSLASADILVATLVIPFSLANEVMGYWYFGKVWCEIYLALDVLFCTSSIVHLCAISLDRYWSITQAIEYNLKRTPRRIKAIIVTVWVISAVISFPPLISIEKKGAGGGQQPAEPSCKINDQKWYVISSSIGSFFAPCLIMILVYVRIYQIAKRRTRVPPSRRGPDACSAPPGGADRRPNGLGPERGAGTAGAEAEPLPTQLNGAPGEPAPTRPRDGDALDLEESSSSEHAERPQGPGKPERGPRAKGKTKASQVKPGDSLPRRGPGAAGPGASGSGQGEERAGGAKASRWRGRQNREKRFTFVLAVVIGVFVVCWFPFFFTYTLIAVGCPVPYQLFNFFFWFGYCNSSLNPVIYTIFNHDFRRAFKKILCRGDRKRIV
Description: as §1
Mallard N. J., Tyacke R., Hudson A. L. and Nutt D. S. Comparative binding studies of ^3 -idazoxan and ^3 -RX821002 in the rat brain. Brit. J. Pharmacol. 102, 221P, 1991.

5-HT1B = target: T6, 5-HT1B (Rattus norvegicus, UniProt P28564); assay: 5-HT1B receptor binding (Peroutka)
T6 construct: from tissue; host or cells: rat frontal cortex
T6 sequence (P28564 whole entry): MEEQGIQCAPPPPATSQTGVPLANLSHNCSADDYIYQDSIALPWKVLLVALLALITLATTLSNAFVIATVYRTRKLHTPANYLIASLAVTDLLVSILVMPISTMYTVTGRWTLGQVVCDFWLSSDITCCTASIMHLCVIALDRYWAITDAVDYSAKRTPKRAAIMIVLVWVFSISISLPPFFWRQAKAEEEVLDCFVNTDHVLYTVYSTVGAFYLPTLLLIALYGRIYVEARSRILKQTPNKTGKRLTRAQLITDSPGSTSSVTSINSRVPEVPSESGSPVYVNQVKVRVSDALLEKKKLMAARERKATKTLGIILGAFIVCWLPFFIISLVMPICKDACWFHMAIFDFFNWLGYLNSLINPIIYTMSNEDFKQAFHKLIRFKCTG
Description: as §1, §2

[1] = 3H-YM-09159-2 (title of cited method), read-out: IC50 D2
[2] = rat brain (title of cited method), read-out: IC50 α2
[3] = rat frontal cortex (title of cited method), mean, read-out: IC50 5-HT1A mean
[4] = porcine choroid plexus (title of cited method), read-out: IC50 5-HT1C

T1 sequence (Q9GJU1 whole entry): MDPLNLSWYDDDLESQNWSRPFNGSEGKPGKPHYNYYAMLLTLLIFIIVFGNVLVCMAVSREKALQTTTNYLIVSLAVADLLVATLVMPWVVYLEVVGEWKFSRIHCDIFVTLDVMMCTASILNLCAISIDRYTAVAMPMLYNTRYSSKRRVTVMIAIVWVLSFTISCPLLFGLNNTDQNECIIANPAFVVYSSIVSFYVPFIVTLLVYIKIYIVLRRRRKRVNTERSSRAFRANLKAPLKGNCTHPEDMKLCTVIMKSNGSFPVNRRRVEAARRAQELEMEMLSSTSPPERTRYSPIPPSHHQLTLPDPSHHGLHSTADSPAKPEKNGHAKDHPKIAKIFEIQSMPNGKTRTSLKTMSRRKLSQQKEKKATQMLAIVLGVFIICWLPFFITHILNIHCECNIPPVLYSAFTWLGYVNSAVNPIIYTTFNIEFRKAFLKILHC

Compound	IC50 (D2-Dopaminergic receptor; [1]) [nM]	IC50 (5-HT2) [nM]	IC50 (5-HT1C) [nM]	IC50 (5-HT1A) [nM]	Ratio 1A/1D (5-HT1D)	IC50 (α1-Adrenergic receptor) [nM]	IC50 (α2-Adrenergic receptor; [2]) [nM]	IC50 (5-HT1B) [nM]	IC50 (5-HT1A; [3]) [nM]	IC50 (5-HT1C; [4]) [nM]	IC50 (5-HT1B; rat frontal cortex (title of cited method), mean, read-out: IC50 5-HT1B mean) [nM]	IC50 (D2-Dopaminergic receptor) [nM]	IC50 (α2-Adrenergic receptor) [nM]
Cc1ccccc1N1CCN(C(=O)COc2ccc3[nH]cc(CCN)c3c2)CC1 [Example 1, 4-o-Tolyl-1-.(tryptamine-5-O-carboxymethyl)-piperazide hydrochloride]	> 1000	> 1000	3000	23.5	11.2	> 1000	> 1000	0.6					
NCCc1c[nH]c2ccc(OCC(=O)N3CCN(c4cccc(C(F)(F)F)c4)CC3)cc12 [Example 3, 4-(a,a,a-Trifluoro-m-tolyl)-1-(tryptamine-5-O-carboxymethyl) piperazide hydrochloride]	> 1000	> 1000	4000	33.5	4.8	> 1000	> 1000	1.9					
NCCc1c[nH]c2ccc(OCC(=O)N3CCN(c4cccc5ccccc45)CC3)cc12 [Example 4, 4-(Naphth-1-yl)-1-(tryptamine-5-O-carboxymethyl) piperazide hydrochloride]	> 1000	> 1000	1800		35.9	> 1000	> 1000	1.9	115				
Cc1cccc(N2CCN(C(=O)COc3ccc4[nH]cc(CCN)c4c3)CC2)c1C [Example 5, 4-(2,3-Xylyl)-1-(tryptamine-5-O-carboxymethyl) piperazide hydrochloride]	> 1000	> 1000	> 1000		8.2	> 1000	> 1000	6	240				
Cc1cccc(N2CCN(C(=O)COc3ccc4[nH]cc(CCNC(=O)OC(C)(C)C)c4c3)CC2)c1C [Example 5A, 4-(2,3 -Xylyl)-1-(tert-butoxycarbamate-tryptamine-5-O-carboxymethyl)piperazide hydrochloride]	> 1000	> 1000			17.3	> 1000	> 1000		34.5	1000	1		
COc1cccc(N2CCN(C(=O)COc3ccc4[nH]cc(CCN)c4c3)CC2)c1 [Example 6, 4-(m-Methoxyphenyl)-1-(tryptamine-5-O-carboxymethyl) piperazide hydrochloride]		> 1000		23.5	8.1	> 1000		1.1		> 1000		> 1000	> 1000
